According to US9914735B2, “Heteroaryl Syk inhibitors” (Boehringer Ingelheim International GmbH, priority 2014, dated 2018):

How the values were obtained:
Format in all cases: biochemical
[1] = biological target: Recombinant human Aurora B (amino acids 1-344) (Homo sapiens (Human), UniProt Q96GD4); assay: Aurora B kinase test (ADP Glo luminescence); conditions: Table 1; read-out: AURB-inhibition IC50-value
Protocol: The activity of the Aurora B kinase protein was determined using the ADP Glo® Luminescence Kinase test (Promega; V9103X).
Serial Dilution is done in 1:10 steps in 100% DMSO.
Then 20 μl Kinase detection mix (Detection Buffer #V913B Promega; Kinase Detection Substrate #V914B Promega) were added and incubated for 40 minutes at room temperature.
(§1) The output file of the reader is a csv file that contains the well number and measured RLU. For data evaluation and calculation, the measurement of the negative control was set as 0% ctrl and the measurement of the positive control was set as 100% ctrl. Based on this values the % value for the measurement of each substance concentration was calculated using an Assay Explorer software (Accelrys). Normally, the % ctrl values calculated are between 0% and 100% values but may also occur outside these limits in individual cases based on variability or compound characteristics. The IC50 values were calculated from the % ctrl values using Assay Explorer software. Calculation: [y=(a−d)/(1+(x/c)^b)+d], a=low value, d=high value; x=conc M; c=IC50 M; b=hill; y=% ctrl.

[2] = biological target: Recombinant human Syk (amino acids 342-635), GST-Syk kinase fusion protein (Homo sapiens (Human), UniProt P43405); assay: Syk kinase test (Kinase Glo luminescence); conditions: Table 1; read-out: SYK-inhibition IC50-value
Protocol: as §1, with “measured relative light units (RLU).” for “measured RLU.”, “as 100%” for “as 0%”, “as 0%” for “as 100%”, “software. Calculation:[y=(a−d)/(1+(x/c)^b)+d]” for “software. Calculation: [y=(a−d)/(1+(x/c)^b)+d],”

FLT3 = FLT3 (Homo sapiens (Human), UniProt P36888); assay: FLT3 kinase test (Z'-LYTE); conditions: Table 1; read-out: FLT3-inhibition IC50-value
Chain of FLT3 (P36888 27-993): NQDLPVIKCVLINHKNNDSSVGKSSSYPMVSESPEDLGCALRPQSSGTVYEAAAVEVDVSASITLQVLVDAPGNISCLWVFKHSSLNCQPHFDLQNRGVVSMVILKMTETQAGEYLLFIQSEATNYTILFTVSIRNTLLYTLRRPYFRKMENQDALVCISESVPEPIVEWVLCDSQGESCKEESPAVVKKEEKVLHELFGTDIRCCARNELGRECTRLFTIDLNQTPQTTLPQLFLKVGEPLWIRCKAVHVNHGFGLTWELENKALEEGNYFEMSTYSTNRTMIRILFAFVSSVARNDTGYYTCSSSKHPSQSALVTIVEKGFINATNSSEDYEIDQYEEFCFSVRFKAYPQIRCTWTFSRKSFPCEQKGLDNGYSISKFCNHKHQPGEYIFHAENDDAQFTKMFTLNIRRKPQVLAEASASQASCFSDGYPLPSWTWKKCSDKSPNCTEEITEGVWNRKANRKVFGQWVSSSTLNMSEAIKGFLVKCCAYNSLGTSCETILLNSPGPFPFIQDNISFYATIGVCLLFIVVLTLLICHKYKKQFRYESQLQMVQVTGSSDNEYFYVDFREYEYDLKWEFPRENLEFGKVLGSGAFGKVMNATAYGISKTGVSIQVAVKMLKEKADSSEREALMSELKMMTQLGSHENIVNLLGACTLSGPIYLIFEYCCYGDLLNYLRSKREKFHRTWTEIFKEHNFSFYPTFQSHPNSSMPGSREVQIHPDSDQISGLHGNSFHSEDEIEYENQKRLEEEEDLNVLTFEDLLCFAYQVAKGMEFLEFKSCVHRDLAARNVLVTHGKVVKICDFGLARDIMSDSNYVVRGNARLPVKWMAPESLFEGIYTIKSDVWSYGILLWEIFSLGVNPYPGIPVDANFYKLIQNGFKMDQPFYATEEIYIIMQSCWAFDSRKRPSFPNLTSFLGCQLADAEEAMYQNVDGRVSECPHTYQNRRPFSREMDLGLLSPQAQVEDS
Protocol: The activity of FLT3 is measured using the Z′-LYTETM assay technology from Invitrogen (#PV3191)
The reaction is started by addition of 2.5 μl of the 4×ATP solution.
Positive controls are reaction mixtures containing no test compound; negative controls (blanks) are reaction mixtures containing no kinase. As a further control, the phosphopeptide solution is added to wells without kinase (=100% phosphorylation control).
The reaction is performed for 1 h at room temperature before 5 μl of the development solution is added. After a further incubation for 1 h at room temperature 5 μl of the stop reagent is added.
The output text file is evaluated in an “MS-Excel—VB-Makro” and “GraphPadPrism” (Version 5) (GraphPad Software Inc.) is used to calculate the results. Data for the inhibition of FLT3 are reported in M. data for the inhibition of the protease are reported in % CTL.

Chain of Recombinant human Aurora B (amino acids 1-344) (Q96GD4 whole entry, the tested form may be a part): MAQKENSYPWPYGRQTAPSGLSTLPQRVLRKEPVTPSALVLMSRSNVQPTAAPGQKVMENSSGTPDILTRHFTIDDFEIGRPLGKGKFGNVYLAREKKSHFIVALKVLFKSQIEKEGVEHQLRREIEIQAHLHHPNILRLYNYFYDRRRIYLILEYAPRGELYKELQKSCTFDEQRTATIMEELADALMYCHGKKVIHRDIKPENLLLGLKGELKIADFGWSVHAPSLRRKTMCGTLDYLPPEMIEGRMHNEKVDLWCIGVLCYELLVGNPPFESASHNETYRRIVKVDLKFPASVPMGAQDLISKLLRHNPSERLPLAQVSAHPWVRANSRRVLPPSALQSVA

Row | Structure (SMILES) | IC50 [1] [µM] | IC50 [2] [µM] | IC50 (FLT3) [µM]
1 | C[C@@H](Oc1cc(-c2cnn(CCC(F)(F)F)c2)cc2nn(C)cc12)[C@H]1CNC(=O)C1 [Example 15, (4R)-4-[(1R)-1-[2-Methyl-6-[1-(3,3,3-trifluoropropyl)pyrazol-4-yl]indazol-4-yl]oxyethyl]pyrrolidin-2-one] | 33.4 | 0.0187 | 10.1
2 | C[C@@H](Oc1cc(-c2n[nH]c3ccc(C#N)cc23)cc2nn(C)cc12)[C@H]1CNC(=O)C1 [Example 16, 3-[2-methyl-4-[(1R)-1-[(3R)-5-oxopyrrolidin-3-yl]-ethoxy]indazol-6-yl]-1H-indazole-5-carbonitrile] | > 50 | 0.0065 | 10.6
3 | Cc1nccn1Cc1ccc(-c2cc3nn(C)cc3c(O[C@H](C)[C@H]3CNC(=O)C3)n2)cc1 [Example 17] | > 50 | 0.0316 | 1.61
4 | C[C@@H](Oc1cc(-c2ccc(N3CCCS3(=O)=O)cc2)cc2nn(C)cc12)[C@H]1CNC(=O)C1 [Example 33] | > 50 | 0.0245 | 3.88
5 | C[C@@H](Oc1cc(-c2cnn(C(F)F)c2)cc2nn(C)cc12)[C@H]1CNC(=O)C1 [Example 40, (4R)-4-[(1R)-1-[6-[1-(difluoromethyl)pyrazol-4-yl]-2-methyl-indazol-4-yl]oxyethyl]pyrrolidin-2-one] | 31.4 | 0.0343 | 8.95
6 | C[C@@H](Oc1cc(-c2cnc3ccc(C#N)cn23)cc2nn(C)cc12)[C@H]1CNC(=O)C1 [Example 43, 3-[2-methyl-4-[(1R)-1-[(3R)-5-oxopyrrolidin-3-yl]ethoxy]indazol-6-yl]imidazo[1,2-a]pyridine-6-carbonitrile] | > 50 | 0.0649 | 15.1
7 | C[C@@H](Oc1cc(-c2cnn(C3CCOCC3)c2)cc2nn(C)cc12)[C@H]1CNC(=O)C1 [Example 47, (4R)-4-[(1R)-1-[2-methyl-6-(1-tetrahydropyran-4-ylpyrazol-4-yl)indazol-4-yl]oxyethyl]pyrrolidin-2-one] | 26 | 0.0067 | 4.77
8 | C[C@@H](Oc1cc(-c2cc3cccc(Cl)c3[nH]2)cc2nn(C)cc12)[C@H]1CNC(=O)C1 [Example 48, (4R)-4-[(1R)-1-[6-(7-chloro-1H-indol-2-yl)-2-methyl-indazol-4-yl]oxyethyl]-pyrrolidin-2-one] | > 50 | 0.0556 | 16.9
9 | C[C@@H](Oc1nc(-c2ccc(C3CC3)nc2)cc2nn(C)cc12)[C@H]1CNC(=O)C1 [Example 50, (4R)-4-[(1R)-1-[6-(6-Cyclopropyl-3-pyridyl)-2-methyl-pyrazolo[4,3-c]pyridine-4-yl]oxyethyl]pyrrolidin-2-one] | 48 | 0.0554 | 9.52
10 | Cc1ccc(-c2cc3nn(C)cc3c(O[C@H](C)[C@H]3CNC(=O)C3)n2)s1 [Example 54, (4R)-4-[(1R)-1-[2-methyl-6-(5-methyl-2-thienyl)pyrazolo-[4,3-c]pyridin-4-yl]oxyethyl]-pyrrolidin-2-one] | > 50 | 0.0892 | 16
11 | C[C@@H](Oc1nc(-c2ccc3c(c2)CCN(C)CC3)cc2nn(C)cc12)[C@H]1CNC(=O)C1 [Example 55, (4R)-4-[(1R)-1-[2-methyl-6-(3-methyl-1,2,4,5-tetrahydro-3-benzazepin-7-yl)pyrazolo-[4,3-c]pyridin-4-yl]oxyethyl]-pyrrolidin-2-one] | > 50 | 0.0436 | 3.07
12 | COCCn1cc(-c2cc3nn(C)cc3c(O[C@H](C)[C@H]3CNC(=O)C3)n2)cn1 [Example 57, (4R)-4-[(1R)-1-[6-[1-(2-methoxyethyl)pyrazol-4-yl]-2-methyl-pyrazolo[4,3-c]pyridin-4-yl]oxyethyl]pyrrolidin-2-one] | > 50 | 0.0901 | 32
13 | CCn1cc(-c2cc3nn(C)cc3c(O[C@H](C)[C@H]3CNC(=O)C3)n2)cn1 [Example 58, (4R)-4-[(1R)-1-[6-(1-ethylpyrazol-4-yl)-2-methyl-pyrazolo[4,3-c]pyridin-4-yl]oxyethyl]pyrrolidin-2-one] | > 50 | 0.0366 | 17.1
14 | C[C@@H](Oc1nc(-c2ccc(C(F)(F)F)cc2)cc2nn(C)cc12)[C@H]1CNC(=O)C1 [Example 60, (4R)-4-[(1R)-1-[2-methyl-6-[4-(trifluoromethyl)phenyl]-pyrazolo[4,3-c]pyridin-4-yl]-oxyethyl]pyrrolidin-2-one] | 34.7 | 0.145 | 9.75
15 | C[C@@H](Oc1nc(-c2cnn(C)c2)cc2nn(C)cc12)[C@H]1CNC(=O)C1 [Example 63, (4R)-4-[(1R)-1-[2-methyl-6-(1-methylpyrazol-4-yl)pyrazolo[4,3-c]pyridin-4-yl]oxyethyl]pyrrolidin-2-one] | > 50 | 0.0473 | 13.2
16 | C[C@@H](Oc1nc(-c2cnn(C3CCOCC3)c2)cc2nn(C)cc12)[C@H]1CNC(=O)C1 [Example 64, (4R)-4-[(1R)-1-[2-methyl-6-(1-tetrahydropyran-4-yl-pyrazol-4-yl)pyrazolo[4,3-c]pyridin-4-yl]oxyethyl]-pyrrolidin-2-one] | > 50 | 0.0258 | 21.6
17 | CC(C)n1cc(-c2cc3nn(C)cc3c(O[C@H](C)[C@H]3CNC(=O)C3)n2)cn1 [Example 65, (4R)-4-[(1R)-1-[6-(1-iso-propylpyrazol-4-yl)-2-methyl-pyrazolo[4,3-c]pyridin-4-yl]-oxyethyl]pyrrolidin-2-one] | > 50 | 0.0211 | 14.8
18 | C[C@@H](Oc1nc(-c2ccc(N3CCOCC3)nc2)cc2nn(C)cc12)[C@H]1CNC(=O)C1 [Example 66, (4R)-4-[(1R)-1-[2-methyl-6-(6-morpholino-3-pyridyl)-pyrazolo[4,3-c]pyridin-4-yl]oxyethyl]pyrrolidin-2-one] | > 50 | 0.0385 | 4.44
19 | Cc1nn(C)cc1-c1cc2nn(C)cc2c(O[C@H](C)[C@H]2CNC(=O)C2)n1 [Example 68, (4R)-4-[(1R)-1-[6-(1,3-dimethylpyrazol-4-yl)-2-methyl-pyrazolo[4,3-c]pyridin-4-yl]oxyethyl]pyrrolidin-2-one] | > 50 | 0.0652 | 22.4
20 | Cc1c(-c2cc3nn(C)cc3c(O[C@H](C)[C@H]3CNC(=O)C3)n2)cnn1C [Example 69, (4R)-4-[(1R)-1-[6-(1,5-dimethylpyrazol-4-yl)-2-methyl-pyrazolo[4,3-c]pyridin-4-yl]oxyethyl]pyrrolidin-2-one] | > 50 | 0.197 | 45.1
21 | C[C@@H](Oc1nc(-c2cnn([C@H]3CCOC3)c2)cc2nn(C)cc12)[C@H]1CNC(=O)C1 [Example 70, (4R)-4-[(1R)-1-[2-methyl-6-[1-[(3S)-tetrahydrofuran-3-yl]pyrazol-4-yl]pyrazolo[4,3-c]pyridin-4-yl]oxyethyl]-pyrrolidin-2-one] | > 50 | 0.0345 | 17
22 | Cc1cc(-c2cc3nn(C)cc3c(O[C@H](C)[C@H]3CNC(=O)C3)n2)ccc1N1CCCS1(=O)=O [Example 71, (4R)-4-[(1R)-1-[6-[4-(1,1-dioxo-1,2-thiazolidin-2-yl)-3-methyl-phenyl]-2-methyl-pyrazolo[4,3-c]pyridin-4-yl]oxyethyl]pyrrolidin-2-one] | > 50 | 0.015 | 7.65
